Test results: patent US20170115308A1, “ASSAY TO MEASURE EFFICACY OF CDK8/19 INHIBITORS” (SENEX BIOTECHNOLOGY, INC., priority 2014, published 2017)

Experiments:
[1] = tested on: STAT1 S727 phosphorylation; assay: STAT1 S727 phosphorylation by immunoblotting in HCT116 colon carcinoma cells; assay type: cell-based, human; details: for inhibition of STAT1 S727 phosphorylation: HCT116, 24 hr treatment, different concentrations
Protocol: (§1) STAT1 S727 phosphorylation was analyzed by immunoblotting using the following primary antibodies: Phospho-Stat1 (Ser727) (D3B7) Rabbit mAb #8826 (used at 1:1000 dilution) and Rabbit Ab #9177 (used at 1:500 dilution) from Cell Signaling Technology (Danvers, Mass.), and total-STAT1 Stat1 p84/p91 Antibody (M-22): sc-592 from Santa Cruz Biotechnology (Dallas, Tex.), used at 1:500 dilution. As a loading control an antibody against a housekeeping protein GAPDH (6C5 mouse monoclonal antibody from Abcam), was used at 1:1000 dilution.
In the experiments shown in FIG. 2, this analysis was continued in HCT116 human colon carcinoma cells.

[2] = tested on: TNFα-induced CXCL1 and CXCL2 transcription; assay: Induction of NFκB-regulated genes by TNFα in HEK-293 cells; assay type: cell-based, human
[3] = tested on: STAT1 S727 phosphorylation; assay: STAT1 S727 phosphorylation in whole-cell protein extracts of 293 cells; assay type: cell-based, human; details: 5 μM
Protocol: (§2) Results are shown for three biological replicates.
as §1

[4] = tested on: proteins bound at NFκB-regulated and housekeeping genes; assay: Chromatin immunoprecipitation (ChIP) with quantitative real-time PCR in 293 cells; assay type: cell-based, human
From the text: Sonicated chromatin was immunoprecipitated with the antibodies against the indicated proteins. The ChIP preps were used for quantitative real-time PCR amplification of different segments of the indicated genes (X-axes show the positions of the tested segments relative to transcription start sites). The results of this analysis for all four conditions (blue, control; red, Senexin A; green, TNFα; purple, TNFα plus Senexin A) are shown, with the genomic positions of the PCR primers diagrammed at the top of the figure.
(Burke et al., 2014) have recently shown that STAT1 cooperates with NFκB in the induction of CXCL1 and CXCL2 transcription by IL-1β in rat insulinoma cells. We have therefore tested whether TNFα-induced CXCL1 and CXCL2 transcription in HEK-293 cells involves STAT1 and whether pSTAT1 in this system is affected by CDK8/19 inhibition. This analysis was conducted by chromatin immunoprecipitation (ChIP) of 293 cells that were pre-treated with 5 μM CDK8/19 inhibitor Senexin A (Porter et al., 2012) or carrier for one hour, at which point either TNFα at 10 ng/ml or carrier was added for 30 min. Sonicated chromatin was extracted as described (Galbraith et al., 2013) and immunoprecipitated with the antibodies against the indicated proteins. […] The results of this analysis for all four conditions (untreated, Senexin A, TNFα, and TNFα plus Senexin A) are shown in FIG. 5, with the genomic positions of the tested ChIP primers diagrammed at the top of the figure.

[5] = tested on: Pol II CTD phosphorylation; assay: Immunoblotting of total Pol II CTD phosphorylation in whole-cell lysates of 293 cells; assay type: cell-based, human; details: 293 whole-cell lysates, same conditions as the ChIP
From the text: as §2

[6] = tested on: STAT1 S727 phosphorylation; assay: STAT1 S727 phosphorylation by immunoblotting in MDA-MB-361 breast cancer cells; assay type: cell-based, human; details: MDA-MB-361, 6 hr, 5 μM
Protocol: as §1
(§3) FIG. 3 illustrates the inhibition of basal STAT1 S727 phosphorylation by CDK8/19 inhibitors in human breast cancer cell lines.

[7] = tested on: STAT1 S727 phosphorylation; assay: STAT1 S727 phosphorylation by immunoblotting in MCF7 breast cancer cells; assay type: cell-based, human
Protocol: as §1, §3

[8] = tested on: STAT1 S727 phosphorylation; assay: STAT1 S727 phosphorylation by immunoblotting in SKBR3 breast cancer cells; assay type: cell-based, human; details: SKBR3, 1 μM or 5 μM, after 30 min of treatment
Protocol: as §1, §3

[9] = tested on: STAT1 S727 phosphorylation; assay: In situ immunofluorescence staining for phospho-STAT1 S727 and total STAT1 in HCT116 cells; assay type: cell-based, human
[10] = tested on: STAT1 S727 phosphorylation; assay: STAT1 S727 phosphorylation by immunoblotting in LNCaP-LN3 derivatives (DV and DK); assay type: cell-based, human; details: treated for 5 hrs
Protocol: as §1
In the experiment shown in FIG. 1, human LNCaP-LN3 cells, an in vivo-derived metastatic variant of LNCaP prostate cancer cells were used. We have compared STAT1 S727 phosphorylation in two derivatives of LNCaP-LN3, one with shRNA knockdown of both CDK8 and CDK19 (CDK8 shRNA was expressed from lentiviral vector PHLB carrying blasticidin resistance marker; CDK19 shRNA was expressed from lentiviral vector pLKO.1 carrying puromycin resistance marker) (DK, double knockdown), and in control cells transduced with insert-free PHLB and pLK0.1 vectors (DV, double vector). […] The immunoblotting for phospho-STAT1 S727 (pSTAT1) and total STAT1 (tSTAT1) is shown in FIG. 1A, and image quantitation for the ratio of pSTAT1/tSTAT1 is shown in FIG. 1B. […]

[11] = tested on: STAT1 in complexes with CDK8; assay: CDK8 immunoprecipitation from HCT116 cells, immunoblotted for total STAT1 or phospho-STAT1 S727; assay type: cell-based, human; details: HCT116, 24 hrs, 10 μM
From the text: To determine whether the effect of CDK8/19 inhibitors on STAT1 S727 phosphorylation involved direct interaction between CDK8 and STAT1, we have asked if STAT1 and CDK8 would co-immunoprecipitate, and if so, whether CDK8/19 kinase inhibition would affect STAT1 phosphorylation in complexes with CDK8.

[12] = tested on: STAT1 S727 phosphorylation; assay: In situ immunofluorescence staining for phospho-STAT1 S727 and total STAT1 in MCF7 cells; assay type: cell-based, human
[13] = tested on: STAT1 S727 phosphorylation; details: Bancerek et al., 2013; cited from earlier work
[14] = 5 μM pre-treatment one hour, TNFα 10 ng/ml 30 min

CN(C)C1CC23CCC4(O2)C(=CCC2(C)C(c5ccc6ccncc6c5)=CCC24)C=C3C(O)C1O (stereo not drawn) [16-didehydro-cortistatin A]
inhibition of STAT1 S727 phosphorylation [1]: inhibited STAT1 S727 phosphorylation similarly to Senexin B

N#Cc1ccc2ncnc(NCCc3ccccc3)c2c1 [Senexin A]
regulation of housekeeping genes HGPRT and GAPDH [2]: not regulated | inhibition of TNFα induction of CXCL1 ([2]; 5 μM, TNFα 10 ng/ml): ~10 fold | inhibition of TNFα induction of CXCL2 ([2]; 5 μM, TNFα 10 ng/ml): ~10 fold | inhibition of TNFα induction of NFKBIA ([2]; 5 μM, TNFα 10 ng/ml): ~1.4 fold | STAT1 S727 phosphorylation in whole-cell protein extracts [3]: strongly inhibited | treatment time after which the effect on STAT1 S727 phosphorylation is noticeable [3]: 15 min | treatment time after which the effect on STAT1 S727 phosphorylation is very strong [3]: 1 h | Pol II recruitment and distribution along the regulated genes [4, 14]: moderate effect | recruitment of p65 subunit of NFκB and CDK8 to promoters of NFκB-regulated genes [4, 14]: little or no effect | phospho-STAT1 S727 (pSTAT1) at CXCL1 ([4]; 5 μM, TNFα): a strong effect | phospho-STAT1 S727 (pSTAT1) at NFKBIA ([4]; 5 μM, TNFα): a weaker effect | phospho-STAT1 S727 (pSTAT1) at the housekeeping genes ([4]; 5 μM, TNFα): little or no effect | Pol II CTD phosphorylation (S5P, S2P) at the strongly regulated genes ([4]; 5 μM, TNFα, CXCL1 and CXCL2): strongly inhibited | association of pSTAT1 with any of the tested genes ([4]; absence of TNFα, total of 90 min treatment): unaffected | total Pol II CTD phosphorylation [5]: not significantly affected

CN1CCN(C(=O)c2ccc3cc(CCNc4ncnc5ccc(C#N)cc45)ccc3c2)CC1 [Senexin B]
inhibition of STAT1 S727 phosphorylation [6]: inhibits STAT1 S727 phosphorylation | inhibition of STAT1 S727 phosphorylation, concentration series ([7]; MCF7, 24 hr treatment, indicated concentrations): concentration-dependent inhibition | inhibition of STAT1 S727 phosphorylation ([7]; MCF7, 24 hr, 5 μM, two antibodies (#8826 and #9177)): inhibition of STAT1 S727 phosphorylation | inhibition of STAT1 S727 phosphorylation, time course [8]: strong inhibition | staining with phospho-STAT1 S727 antibody in situ [9]: inhibition of STAT1 S727 phosphorylation | staining with the antibody against total STAT1 [9]: no apparent effect | treatment time after which inhibition of STAT1 S727 phosphorylation is noticeable ([1]; HCT116, 5 μM): 15 min | treatment time after which inhibition of STAT1 S727 phosphorylation is very strong ([1]; HCT116, 5 μM): 1 h | inhibition of STAT1 S727 phosphorylation [1]: concentration-dependent inhibition | concentration from which STAT1 S727 phosphorylation plateaus at a low level ([10]; LNCaP-LN3 DV and DK cells): 1 µM | concentration from which basal STAT1 S727 phosphorylation is decreased (lowest concentration) ([10]; LNCaP-LN3 cells, pSTAT1/tSTAT1 ratio): 16 nM | binding of total STAT1 to CDK8 (co-immunoprecipitation) [11]: does not affect the binding of total STAT1 | phospho-STAT1 S727 in CDK8 immunoprecipitate [11]: inhibits its phosphorylation at S727 | staining with phospho-STAT1 S727 antibody in situ [12]: inhibition of STAT1 S727 phosphorylation | staining with the antibody against total STAT1 [12]: no apparent effect

CN1CC[C@H](c2c(O)cc(O)c3c(=O)cc(-c4ccccc4Cl)oc23)[C@H](O)C1 [flavopiridol]
enhancement of STAT1 S727 phosphorylation by LPS or anisomycin [13]: failed to inhibit

Cortistatin A
inhibition of STAT1 S727 phosphorylation [1]: concentration-dependent inhibition
